Reference: patent publication US9394260B2, “Pyrimidinone carboxamide inhibitors of endothelial lipase” (BRISTOL-MYERS SQUIBB COMPANY, priority 2012, dated 2016)

Target: T1, endothelial lipase (EL) (Homo sapiens, UniProt Q9Y5X9)
T1 construct: transformed by RAGE technology (Athersys) to overexpress endogenous EL; endogenous in cells; conditioned medium used as the enzyme source
T1 sequence (Q9Y5X9 21-500): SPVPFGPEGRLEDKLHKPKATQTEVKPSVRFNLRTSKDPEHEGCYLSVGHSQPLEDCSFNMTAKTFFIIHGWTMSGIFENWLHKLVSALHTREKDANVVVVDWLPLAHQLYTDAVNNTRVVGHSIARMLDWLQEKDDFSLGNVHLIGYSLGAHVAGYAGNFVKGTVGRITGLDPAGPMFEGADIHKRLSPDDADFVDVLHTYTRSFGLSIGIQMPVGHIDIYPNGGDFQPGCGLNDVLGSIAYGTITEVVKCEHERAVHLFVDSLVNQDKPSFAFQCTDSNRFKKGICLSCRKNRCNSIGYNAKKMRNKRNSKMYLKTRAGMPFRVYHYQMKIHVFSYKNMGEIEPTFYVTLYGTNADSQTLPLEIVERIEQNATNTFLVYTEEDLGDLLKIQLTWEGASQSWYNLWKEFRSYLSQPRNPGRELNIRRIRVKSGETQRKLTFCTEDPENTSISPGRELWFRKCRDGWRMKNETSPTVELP
Assay: Endothelial lipase (EL) enzymatic assay with fluorescent substrate A10070 in DMPG vesicles
Format: biochemical
Conditions: conditioned media from HT-1080 cells overexpressing endogenous EL, 20 min preincubation at 37° C.
Procedure: Endothelial lipase activity was measured using a fluorescent substrate, A10070, (Invitrogen, CA) doped into an artificial vesicle containing DMPG (Avanti Polar Lipids) as the excipient. Vesicles were prepared by combining 285 μL of 1 mM DMPG in a 1:1 mixture of MeOH and CHCl3 with 15 μL of 1 mM A10070 in a 1:1 mixture of MeOH and CHCl3. The mixture was dried under nitrogen and resuspended in 150 μL of 50 mM HEPES pH 8.0 buffer containing 100 mM NaCl and 0.2 mM EDTA. The sample was allowed to sit at rt for 15 min and then was sonicated 3×4 mins on ice with a Branson Sonicator using duty cycle 1. This preparation provides vesicles with a mole fraction of 0.05 for the FRET substrate.
The enzymatic assay was measured using white, opaque 96-well half area plates. Each well contained 60 μL of assay buffer (50 mM HEPES pH 8.0, 50 mM NaCl and 1 mM CaCl2) and 2 ul of a DMSO solution containing compound of interest. Conditioned media obtained from HT-1080 cells, which were transformed by RAGE technology (Athersys) to overexpress endogenous EL, was added and the reaction was allowed to incubate for 20 min at 37° C. with gentle agitation. The reaction was started by the addition of 20 μL of a 1:4 dilution of vesicles. The final total reaction volume was 100 μL. The reaction rates were measured on a Gemini plate reader with an excitation wavelength of 488 nm and a emission of 530 nm. Readings were taken every 20 seconds for 10 min with agitation between each reading. The slope of the linear portion of the readout was used to calculate the rate of the reaction.
The exemplified examples disclosed in the present invention were tested in the EL assay described above and found having EL inhibitory activity. A range of EL IC50 values of ≦10 μM (10000 nM) was observed.

| Structure (SMILES) | IC50 |
| --- | --- |
| Nc1c(C(=O)NCC2CCc3nn(Cc4ccccc4)cc3C2)[nH]c(=O)[nH]c1=O (stereo not drawn) [Example 50, 5-amino-N-((2-benzyl-4,5,6,7-tetrahydro-2H-indazol-5-yl)methyl)-2,6-dioxo-1,2,3,6-tetrahydropyrimidine-4-carboxamide] | 2480 nM |
| C[C@@H](NC(=O)c1[nH]c(=O)[nH]c(=O)c1O)c1cccc(-c2cnn(Cc3ccccc3)c2)c1 [Example 181, (R)-N-(1-(3-(1-benzyl-1H-pyrazol-4-yl)phenyl)ethyl)-5-hydroxy-2,6-dioxo-1,2,3,6-tetra-hydropyrimidine-4-carboxamide] | 10 nM |
| Nc1c(C(=O)NCC2CCN(S(=O)(=O)c3ccc(Cl)c(Cl)c3)CC2)[nH]c(=O)[nH]c1=O [Example 37, 5-amino-N-((1-(3,4-dichloro-phenylsulfonyl)piperidin-4-yl)methyl)-2,6-dioxo-1,2,3,6-tetrahydropyrimidine-4-carboxamide] | 3170 nM |
| COc1ccc(CNc2c(C(=O)N[C@H](C)CCc3ccc(Cl)c(Cl)c3)[nH]c(=O)n(C)c2=O)cc1 [Example 171, (R)—N-(4-(3,4-Dichlorophenyl)butan-2-yl)-5-(4-methoxybenzylamino)-1-methyl-2,6-dioxo-1,2,3,6-tetrahydropyrimidine-4-carboxamide] | 358 nM |

Next, values leading:

| IC50 | Structure (SMILES) |
| --- | --- |
| 509 nM | C[C@H](COc1ccc(Cl)cc1C(=O)c1ccccc1)NC(=O)c1[nH]c(=O)[nH]c(=O)c1N [Example 88, (R)-5-amino-N-(1-(2-benzoyl-4-chlorophenoxy)propan-2-yl)-2,6-dioxo-1,2,3,6-tetrahydropyrimidine-4-carboxamide] |
| 883 nM | C[C@@H](NC(=O)c1[nH]c(=O)[nH]c(=O)c1N)c1cccc(-c2cnn(Cc3cccc(C(N)=O)c3)c2)c1 [Example 141, (R)-5-amino-N-(1-(3-(1-(3-carbamoylbenzyl)-1H-pyrazol-4-yl)phenyl)ethyl)-2,6-dioxo-1,2,3,6-tetrahydro-pyrimidine-4-carboxamide] |
